How the values were obtained:
calcium channel = biological target: T1, calcium channel (Oryctolagus cuniculus, UniProt P15381); assay: Assay for Inhibition of Nitrendipine Binding (3H-nitrendipine, heart membranes); conditions: 3H-nitrendipine displacement, rabbit heart membranes
T1 construct: from tissue; host or cells: rabbit heart membrane preparation
Protocol: Female, New Zealand white rabbits (1-2 kg) are sacrificed by cervical dislocation, and the heart is immediately removed, cleaned and chopped into small pieces. The tissue is homogenized in 5× times volume of 0.05M Hepes buffer, pH 7.4. The homogenate is centrifuged at 4000 g for 10 minutes, and the supernatant is re-centrifuged at 42,000×g for 90 minutes. The resulting membrane pellet is resuspended (0.7 ml/g weight) in 0.05M Hepes, pH 7.4 and stored at […] until used. Each tube of the binding assay contains ^3H-nitrendipine (0.05-0.50 nM), buffer, membranes (0.10 ml), and test compound in a total volume of 1.0 ml. After 90 minutes at 4° C., the bound nitrendipine is separated from the unbound by filtration on Whatman GF/C filters. After rinsing, the filters are dried and counted in a liquid scintillation counter.
Non-specific binding of ^3H-nitrendipine (that amount bound in the presence of excess unlabelled nitrendipine) is subtracted from the total bound to obtain specifically bound radiolabeled nitrendipine. The amount of specifically bound nitrendipine in the presence of a test compound is compared to that amount bound in the absence of a compound. A percent displacement (or inhibition) can then be calculated.

trachealis muscle tissue = assay: Test for Inhibition of Calcium-Dependent Smooth Muscle Contraction (trachea); assay type: cell-based; conditions: Canis lupus familiaris; dog tracheal rings, 50 mM KCl contraction
Protocol: The trachea and the aorta from dogs sacrificed by excess KCl injection are stored overnight at 4° C. in oxygenated Krebs-Henseleit buffer. Tracheal rings, one cartilage segment wide (5-10 mm), are cut starting from the bronchial end. Rings of aorta tissue of the same width are also prepared. After cutting the cartilage, the trachealis muscle tissue and the aorta tissue are suspended in oxygenated Krebs-Henseleit buffer at 37° C. in a 25 ml tissue bath. After a 60-minute equilibration period, the tissues are challenged with 10 μM carbachol. After 5 minutes, the tissues are rinsed and allowed to rest 50 minutes. The tissues are then challenged with 50 mM KCl and, after 30 minutes, the contractions are quantitated. The tissues are then rinsed and re-equilibrated for 50 minutes. Test compounds are then added for 10 minutes, and the tissue is rechallenged with 50 mM KCl. After 30 minutes, the contraction is recorded. A percent inhibition of smooth muscle contraction can then be calculated.

T1 sequence (P15381 whole entry, other chains not shown): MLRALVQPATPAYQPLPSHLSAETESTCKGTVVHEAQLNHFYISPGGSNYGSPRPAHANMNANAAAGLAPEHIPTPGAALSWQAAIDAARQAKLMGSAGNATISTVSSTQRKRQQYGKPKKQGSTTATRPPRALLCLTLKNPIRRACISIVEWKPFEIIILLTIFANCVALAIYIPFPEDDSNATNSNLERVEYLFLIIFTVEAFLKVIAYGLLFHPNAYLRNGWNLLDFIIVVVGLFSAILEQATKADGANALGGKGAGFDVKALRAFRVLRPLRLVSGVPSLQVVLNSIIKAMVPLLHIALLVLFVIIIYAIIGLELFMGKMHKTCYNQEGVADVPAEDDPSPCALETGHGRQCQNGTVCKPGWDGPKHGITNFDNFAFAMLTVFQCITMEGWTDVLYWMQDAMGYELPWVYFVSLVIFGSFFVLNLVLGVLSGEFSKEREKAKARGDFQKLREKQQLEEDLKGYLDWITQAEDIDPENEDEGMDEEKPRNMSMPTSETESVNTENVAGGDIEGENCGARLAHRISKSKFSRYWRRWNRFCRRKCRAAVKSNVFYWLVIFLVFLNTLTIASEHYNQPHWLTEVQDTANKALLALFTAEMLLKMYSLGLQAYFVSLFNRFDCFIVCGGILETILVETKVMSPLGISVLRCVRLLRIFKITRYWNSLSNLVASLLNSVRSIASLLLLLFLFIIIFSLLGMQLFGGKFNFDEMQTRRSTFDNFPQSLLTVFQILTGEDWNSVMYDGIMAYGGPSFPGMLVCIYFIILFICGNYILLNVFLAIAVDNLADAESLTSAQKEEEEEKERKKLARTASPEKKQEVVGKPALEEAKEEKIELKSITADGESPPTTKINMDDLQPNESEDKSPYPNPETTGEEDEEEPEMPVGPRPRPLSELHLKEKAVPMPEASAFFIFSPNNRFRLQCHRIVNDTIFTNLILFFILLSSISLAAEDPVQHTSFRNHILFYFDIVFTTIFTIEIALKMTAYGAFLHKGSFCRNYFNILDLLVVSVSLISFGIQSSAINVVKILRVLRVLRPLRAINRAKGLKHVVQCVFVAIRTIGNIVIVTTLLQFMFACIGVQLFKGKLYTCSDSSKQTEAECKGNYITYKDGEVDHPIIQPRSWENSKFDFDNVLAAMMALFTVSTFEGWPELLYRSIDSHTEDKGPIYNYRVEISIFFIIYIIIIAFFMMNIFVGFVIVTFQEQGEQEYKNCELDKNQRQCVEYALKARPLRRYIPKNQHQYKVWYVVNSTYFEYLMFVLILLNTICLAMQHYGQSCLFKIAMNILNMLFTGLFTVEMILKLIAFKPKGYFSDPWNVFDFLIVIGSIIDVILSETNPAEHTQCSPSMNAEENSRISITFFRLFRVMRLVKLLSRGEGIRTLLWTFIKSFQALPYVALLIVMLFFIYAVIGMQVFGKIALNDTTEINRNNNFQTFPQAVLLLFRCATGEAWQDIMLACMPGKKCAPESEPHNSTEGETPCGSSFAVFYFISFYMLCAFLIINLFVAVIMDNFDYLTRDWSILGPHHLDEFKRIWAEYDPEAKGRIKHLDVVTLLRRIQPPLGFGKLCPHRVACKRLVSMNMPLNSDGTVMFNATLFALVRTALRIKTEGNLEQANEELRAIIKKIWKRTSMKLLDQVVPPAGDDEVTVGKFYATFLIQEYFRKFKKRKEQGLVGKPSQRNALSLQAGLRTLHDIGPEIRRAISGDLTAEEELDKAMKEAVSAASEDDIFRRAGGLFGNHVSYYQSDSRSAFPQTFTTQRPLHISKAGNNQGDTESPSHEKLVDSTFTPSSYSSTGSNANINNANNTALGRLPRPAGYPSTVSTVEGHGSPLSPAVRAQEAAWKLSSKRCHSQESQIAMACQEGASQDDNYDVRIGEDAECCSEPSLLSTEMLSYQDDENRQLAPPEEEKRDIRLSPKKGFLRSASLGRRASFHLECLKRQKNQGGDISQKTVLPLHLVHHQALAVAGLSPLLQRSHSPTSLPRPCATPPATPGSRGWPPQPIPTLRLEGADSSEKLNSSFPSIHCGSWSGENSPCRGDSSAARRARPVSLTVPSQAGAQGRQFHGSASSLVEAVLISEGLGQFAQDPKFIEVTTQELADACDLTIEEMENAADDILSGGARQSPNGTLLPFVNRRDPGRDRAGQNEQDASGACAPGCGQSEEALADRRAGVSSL
T1 sequence (P13806 27-960 partner limits assumed, other chains not shown): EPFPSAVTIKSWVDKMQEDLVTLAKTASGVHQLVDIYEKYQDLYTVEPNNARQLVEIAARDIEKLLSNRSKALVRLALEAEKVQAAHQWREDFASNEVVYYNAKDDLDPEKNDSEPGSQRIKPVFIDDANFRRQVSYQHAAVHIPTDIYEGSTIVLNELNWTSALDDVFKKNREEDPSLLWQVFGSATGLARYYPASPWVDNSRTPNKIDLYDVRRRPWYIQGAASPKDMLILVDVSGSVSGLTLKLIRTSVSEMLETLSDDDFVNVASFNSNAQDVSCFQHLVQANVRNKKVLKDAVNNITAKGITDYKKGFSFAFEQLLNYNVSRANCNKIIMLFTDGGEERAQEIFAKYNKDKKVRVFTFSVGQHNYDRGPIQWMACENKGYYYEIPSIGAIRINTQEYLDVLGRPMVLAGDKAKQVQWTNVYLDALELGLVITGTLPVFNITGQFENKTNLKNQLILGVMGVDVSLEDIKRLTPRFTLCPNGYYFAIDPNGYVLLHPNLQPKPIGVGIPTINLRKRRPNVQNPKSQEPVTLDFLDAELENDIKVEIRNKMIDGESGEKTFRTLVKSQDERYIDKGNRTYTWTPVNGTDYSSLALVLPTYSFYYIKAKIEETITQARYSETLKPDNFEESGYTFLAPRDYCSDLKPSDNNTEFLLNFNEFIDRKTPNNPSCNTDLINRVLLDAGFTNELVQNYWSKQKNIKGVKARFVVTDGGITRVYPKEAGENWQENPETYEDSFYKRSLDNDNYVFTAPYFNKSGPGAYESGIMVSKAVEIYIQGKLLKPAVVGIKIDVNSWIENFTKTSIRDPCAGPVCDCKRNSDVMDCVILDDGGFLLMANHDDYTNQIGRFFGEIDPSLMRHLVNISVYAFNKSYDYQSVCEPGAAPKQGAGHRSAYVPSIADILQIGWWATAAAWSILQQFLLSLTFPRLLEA
T1 sequence (P13806 961-1106 partner limits assumed, other chains not shown): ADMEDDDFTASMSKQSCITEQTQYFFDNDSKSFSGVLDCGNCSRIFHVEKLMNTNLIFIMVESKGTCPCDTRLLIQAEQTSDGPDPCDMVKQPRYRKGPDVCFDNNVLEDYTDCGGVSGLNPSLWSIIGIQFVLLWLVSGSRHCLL

| IC50 (calcium channel; Tables 1-5) | IC50 (trachealis muscle tissue) | IC50 (calcium channel; Tables 6-7) | Compound |
| --- | --- | --- | --- |
| 74 nM | 650 nM |  | CC1=C(C(=O)OCCN(C)Cc2ccccc2)C(c2c(F)cccc2Cl)C2=C(CS(=O)(=O)CCS2(=O)=O)N1 (stereo not drawn) [Compound 1, 5H-1,4-Dithiepino[6,5-b]pyridine-8-carboxylic acid, 9-(2-chloro-6-fluorophenyl)-2,3,6,9-tetrahydro-7-methyl-2-[methyl(phenylmethyl)amino]ethyl ester 1,1,4,4-tetraoxide] |
| 43 nM | 660 nM |  | CC1=C(C(=O)OCCN(C)Cc2ccccc2)[C@@H](c2c(F)cccc2Cl)C2=C(CS(=O)(=O)CCS2(=O)=O)N1 (single isomer, unassigned) [Compound 2, 5H-1,4-Dithiepino[6,5-b]pyridine-8-carboxylic acid, 9-(2-chloro-6-fluorophenyl)-2,3,6,9-tetrahydro-7-methyl-2-[methyl(phenylmethyl)amino]ethyl ester 1,1,4,4-tetraoxide] |
| 49 nM | 6200 nM |  | CC1=C(C(=O)OCCN(C)Cc2ccccc2)C(c2c(F)c(F)c(F)c(F)c2F)C2=C(CS(=O)(=O)CCCS2(=O)=O)N1 (stereo not drawn) [Compound 27, 2H,6H-1,5-Dithiocino[3,2-b]pyridine-9-carboxylic acid, 3,4,7,10-tetrahydro-8-methyl-10-(pentafluorophenyl)-2-[methyl(phenylmethyl)amino]ethyl ester 1,1,5,5-tetraoxide] |
|  |  | 40 nM | CC1=C(C(=O)OCCOC(=O)c2ccc(OC(C)C)cc2)C(c2c(F)cccc2Cl)C2=C(CS(=O)(=O)CCCS2(=O)=O)N1 (stereo not drawn) [Compound 99, 2H,6H-[1,5]dithiocino[3,2-b]pyridine-9-carboxylic acid, 10-(2-chloro-6-fluorophenyl)-3,4,7,10-tetrahydro-8-methyl-, 2-[[4-(1-methylethoxy)benzoyl]oxy]ethyl ester, 1,1,5,5-tetraoxide] |
|  |  | 154 nM | CC1=C(C(=O)OCC(=O)OCCc2ccccc2)C(c2c(F)cccc2Cl)C2=C(CS(=O)(=O)CCS2(=O)=O)N1 (stereo not drawn) [Compound 59] |
|  |  | 41 nM | COc1cccc(C(=O)OCCOC(=O)C2=C(C)NC3=C(C2c2c(F)cccc2Cl)S(=O)(=O)CCS(=O)(=O)C3)c1 (stereo not drawn) [Compound 40] |
| 91 nM |  |  | COC(=O)C1=C(C)NC2=C(C1c1c(F)cccc1Cl)S(=O)(=O)CCS(=O)(=O)C2 (stereo not drawn) [Compound 11, 5H-1,4-Dithiepino[6,5-b]pyridine-8-carboxylic acid, 9-(2-chloro-6-fluorophenyl)-2,3,6,9-tetrahydro-7-methyl-methyl ester 1,1,4,4-tetraoxide] |
|  |  | 340 nM | CC(=O)OCCCOC(=O)C1=C(C)NC2=C(C1c1c(F)cccc1Cl)S(=O)(=O)CCS(=O)(=O)C2 (stereo not drawn) [Compound 68] |
|  |  | 143 nM | CC1=C(C(=O)OCCOC(=O)C(C)C)C(c2c(F)cccc2Cl)C2=C(CS(=O)(=O)CCS2(=O)=O)N1 (stereo not drawn) [Compound 57] |
| 215 nM |  |  | CC1=C(C(=O)OCCN(C)Cc2ccccc2)C(c2cccc(C(F)(F)F)c2F)C2=C(CS(=O)(=O)C(CO)CS2(=O)=O)N1 (stereo not drawn) [Compound 23, 5H-1,4-Dithiepino[6,5-b]pyridine-8-carboxylic acid, 9-[2-fluoro-3-(trifluoromethyl)phenyl]-2,3,6,9-tetrahydro-3-(hydroxymethyl)-7-methyl-2-[methyl(phenylmethyl)amino]ethyl ester 1,1,4,4-tetraoxide] |
|  |  | 51000 nM | CC1=C(C(=O)OCCOC(=O)C(N)CCCCN)C(c2c(F)cccc2Cl)C2=C(CS(=O)(=O)CCS2(=O)=O)N1 (stereo not drawn) [Compound 96] |
|  |  | 55 nM | CC1=C(C(=O)OCCOC(=O)c2ccc(C#N)cc2)C(c2c(F)cccc2Cl)C2=C(CS(=O)(=O)CCS2(=O)=O)N1 (stereo not drawn) [Compound 48] |

From US20020026051A1, “Dithiepino [6,5-b]pyridines, and related compositions and methods” (priority 1999, published 2002)
